Results published in patent US20120082658A1, “Methods for the Treatment of Allergic Diseases” (VentiRx Pharmaceuticals, Inc., priority 2010, published 2012).
Where two headings read alike, the source gives them in different places.

System: human peripheral blood mononuclear cells (PBMCs)
Assay: Cytokine production in isolated human PBMCs
Assay type: cell-based
Conditions: for EC50: Homo sapiens, PBMC
Procedure: Preclinical studies were performed with VTX-378, the active pharmaceutical ingredient in VTX-1463. The specificity of VTX-378 for human TLR8 relative to other TLRs was assessed in transfected Human Embryonic Kidney 293 (HEK293) cells engineered to express individual TLRs (2-9) via transfection, and assessed using an NF-κB driven reporter system. […] The pharmacologic effects of VTX-378 were characterized in vitro using isolated human peripheral blood mononuclear cells (PBMCs).

**Q.** Which EC50 (analyte IL-10, read-out: EC50, IL-10 production) does the source give for `CC(C)Cn1cnc2c(N)nc3ccccc3c21` [Imiquimod, imiquimod, reference compound] here?
**A.** Its EC50 is 17 µM.

**Q.** What about the EC50 (analyte IL-12p40, read-out: EC50, IL-12p40 production) of the same molecule?
**A.** The EC50 was 0.27 µM.

**Q.** What about the “Mean Mediator Level ± SEM, IL-10” value (Imiquimod 25 uM) of the same molecule?
**A.** The value was 59 ± 24 pg/mL.

**Q.** And the “Mean Mediator Level ± SEM, IL-12p40” value (Imiquimod 25 uM)?
**A.** Its value is 10.2 ± 3.5 pg/mL.

**Q.** What about the “Mean Mediator Level ± SEM, IL-12p70” value (Imiquimod 25 uM) of the same molecule?
**A.** Its value is 0.6 ± 0.6 pg/mL.
